We go through 15 compounds from patent US20190152957A1, “PYRIDIN-3-YL ACETIC ACID DERIVATIVES AS INHIBITORS OF HUMAN IMMUNODEFICIENCY VIRUS REPLICATION” (ViiV HEALTHCARE UK (NO.5) LIMITED, priority 2016, published 2019).

Each structure is given as a SMILES string. Like-named read-outs stand apart in the source and are kept apart here.

For the test, the system named is recombinant NL-RLuc virus (HIV NL4-3 with Renilla Luciferase gene) in MT-2 cells. As to the kind of experiment: Inhibition of HIV replication (NL-RLuc virus, luciferase readout in MT-2 cells). It counts as cell-based. As to conditions: MT2, 120 h. From the text:
Inhibition of HIV Replication:
A recombinant NL-RLuc proviral clone was constructed in which a section of the nef gene from NL4-3 was replaced with the Renilla Luciferase gene. This virus is fully infectious and can undergo multiple cycles of replication in cell culture. In addition, the luciferous reporter provides a simple and easy method for quantitating the extent of virus growth and consequently, the antiviral activity of test compounds. The plasmid pNLRLuc contains the proviral NL-Rluc DNA cloned into pUC18 at the PvuII site. The NL-RLuc virus was prepared by transfection of 293T cells with the plasmid pNLRLuc. Transfections were performed using the LipofectAMINE PLUS kit from Invitrogen (Carlsbad, Calif.) according to the manufacturer and the virus generated was titered in MT-2 cells. For susceptibility analyses, the titrated virus was used to infect MT-2 cells in the presence of compound, and after 5 days of incubation, cells were processed and quantitated for virus growth by the amount of expressed luciferase. Assay media was RPMI 1640 supplemented with 10% heat inactivated fetal bovine serum (FBS), 100 units/ml penicillin G/100 units/ml streptomycin, 10 mM HEPES buffer pH 7.55 and 2 mM L-glutamine. The results from at least 2 experiments were used to calculate the EC50 values. Luciferase was quantitated using the Dual Luciferase kit from Promega (Madison, Wis.). Susceptibility of viruses to compounds was determined by incubation in the presence of serial dilutions of the compound. The 50% effective concentration (EC50) was calculated by using the exponential form of the median effect equation where (Fa)=1/[1+(ED50/drug conc.)^m](Johnson V A, Byington R T. Infectivity Assay. In Techniques in HIV Research. ed. Aldovini A, Walker BD. 71-76. New York: Stockton Press. 1990). Activity equal to A refers to a compound having an EC50≤100 nM, while B and C denote compounds having an EC50 between 100 nM and 1 uM (B) or >1 uM (C).

On to `Cc1cccc(-n2cc(CN3CCc4cc(-c5c(C)nc(C)c([C@H](OC(C)(C)C)C(=O)O)c5N5CCC(C)(C)CC5)ccc4C3)cn2)c1` [Compound 41, (S)-2-(tert-butoxy)-2-(4-(4,4-dimethylpiperidin-1-yl)-2,6-dimethyl-5-(2-((1-(m-tolyl)-1H-pyrazol-4-yl)methyl)-1,2,3,4-tetrahydroisoquinolin-6-yl)pyridin-3-yl)acetic acid], for which, under “read-out: Activity”, the EC50 was under 0.1 µM.

Consider `Cc1cc(CN2CCc3cc(-c4c(C)nc(C)c([C@H](OC(C)(C)C)C(=O)O)c4N4CCC(C)(C)CC4)ccc3C2)[nH]n1` [Compound 42, (S)-2-(tert-butoxy)-2-(4-(4,4-dimethylpiperidin-1-yl)-2,6-dimethyl-5-(2-((3-methyl-1H-pyrazol-5-yl)methyl)-1,2,3,4-tetrahydroisoquinolin-6-yl)pyridin-3-yl)acetic acid], for which the EC50 (read-out: Activity) was under 0.1 µM.

For `Cc1nc(CN2CCc3cc(-c4c(C)nc(C)c([C@H](OC(C)(C)C)C(=O)O)c4N4CCC(C)(C)CC4)ccc3C2)c[nH]1` [Compound 43, (S)-2-(tert-butoxy)-2-(4-(4,4-dimethylpiperidin-1-yl)-2,6-dimethyl-5-(2-((2-methyl-1H-imidazol-4-yl)methyl)-1,2,3,4-tetrahydroisoquinolin-6-yl)pyridin-3-yl)acetic acid], the EC50 (read-out: Activity) was under 0.1 µM.

`CCn1cc(CN2CCc3cc(-c4c(C)nc(C)c([C@H](OC(C)(C)C)C(=O)O)c4N4CCC(C)(C)CC4)ccc3C2)cn1` [Compound 44, (S)-2-(tert-butoxy)-2-(4-(4,4-dimethylpiperidin-1-yl)-5-(2-((1-ethyl-1H-pyrazol-4-yl)methyl)-1,2,3,4-tetrahydroisoquinolin-6-yl)-2,6-dimethylpyridin-3-yl)acetic acid]: the EC50 (read-out: Activity) is under 0.1 µM.

For the compound `Cc1nc(C)c([C@H](OC(C)(C)C)C(=O)O)c(N2CCC(C)(C)CC2)c1-c1ccc2c(c1)CCN(Cc1cccnc1OC(C)C)C2` [Compound 45, (S)-2-(tert-butoxy)-2-(4-(4,4-dimethylpiperidin-1-yl)-5-(2-((2-isopropoxypyridin-3-yl)methyl)-1,2,3,4-tetrahydroisoquinolin-6-yl)-2,6-dimethylpyridin-3-yl)acetic acid], the EC50 (read-out: Activity) was under 0.1 µM.

Take `Cc1nc(C)c([C@H](OC(C)(C)C)C(=O)O)c(N2CCC(C)(C)CC2)c1-c1ccc2c(c1)CCN(Cc1nnn[nH]1)C2` [Compound 46, (S)-2-(5-(2-((1H-tetrazol-5-yl)methyl)-1,2,3,4-tetrahydroisoquinolin-6-yl)-4-(4,4-dimethylpiperidin-1-yl)-2,6-dimethylpyridin-3-yl)-2-(tert-butoxy)acetic acid]: under “read-out: Activity”, the EC50 was under 0.1 µM.

Regarding `COc1ccc(CN2CCc3cc(-c4c(C)nc(C)c([C@H](OC(C)(C)C)C(=O)O)c4N4CCC(C)(C)CC4)ccc3C2)cn1` [Compound 47, (S)-2-(tert-butoxy)-2-(4-(4,4-dimethylpiperidin-1-yl)-5-(2-((6-methoxypyridin-3-yl)methyl)-1,2,3,4-tetrahydroisoquinolin-6-yl)-2,6-dimethylpyridin-3-yl)acetic acid], the EC50 reads like this: (read-out: Activity) under 0.1 µM; (read-out: EC50 μM) 0.002 µM.

`COc1ncc(CN2CCc3cc(-c4c(C)nc(C)c([C@H](OC(C)(C)C)C(=O)O)c4N4CCC(C)(C)CC4)ccc3C2)c(OC)n1` [Compound 48, (S)-2-(tert-butoxy)-2-(5-(2-((2,4-dimethoxypyrimidin-5-yl)methyl)-1,2,3,4-tetrahydroisoquinolin-6-yl)-4-(4,4-dimethylpiperidin-1-yl)-2,6-dimethylpyridin-3-yl)acetic acid]: the EC50 (read-out: Activity) was under 0.1 µM.

On to `COc1ccc(CN2CCc3cc(-c4c(C)nc(C)c([C@H](OC(C)(C)C)C(=O)O)c4N4CCC(C)(C)CC4)ccc3C2)c(OC)n1` [Compound 49, (S)-2-(tert-butoxy)-2-(5-(2-((2,6-dimethoxypyridin-3-yl)methyl)-1,2,3,4-tetrahydroisoquinolin-6-yl)-4-(4,4-dimethylpiperidin-1-yl)-2,6-dimethylpyridin-3-yl)acetic acid], for which the EC50 (read-out: Activity) is under 0.1 µM.

As for `Cc1nc(C)c([C@H](OC(C)(C)C)C(=O)O)c(N2CCC(C)(C)CC2)c1-c1ccc2c(c1)CCN(Cc1cn[nH]c1)C2` [Compound 50, (S)-2-(5-(2-((1H-pyrazol-4-yl)methyl)-1,2,3,4-tetrahydroisoquinolin-6-yl)-4-(4,4-dimethylpiperidin-1-yl)-2,6-dimethylpyridin-3-yl)-2-(tert-butoxy)acetic acid], for the setting “read-out: Activity”, the EC50 was under 0.1 µM.

As to `Cc1nc(C)c([C@H](OC(C)(C)C)C(=O)O)c(N2CCC(C)(C)CC2)c1-c1ccc2c(c1)CCN(Cc1[nH]nnc1[Si](C)(C)C)C2` [Compound 51, (S)-2-(tert-butoxy)-2-(4-(4,4-dimethylpiperidin-1-yl)-2,6-dimethyl-5-(2-((4-(trimethylsilyl)-1H-1,2,3-triazol-5-yl)methyl)-1,2,3,4-tetrahydroisoquinolin-6-yl)pyridin-3-yl)acetic acid], under “read-out: Activity”, the EC50 was under 0.1 µM.

With `Cc1nc(C)c([C@H](OC(C)(C)C)C(=O)O)c(N2CCC(C)(C)CC2)c1-c1ccc2c(c1)CCN(Cc1ccc(=O)[nH]c1)C2` [Compound 52, (S)-2-(tert-butoxy)-2-(4-(4,4-dimethylpiperidin-1-yl)-2,6-dimethyl-5-(2-((6-oxo-1,6-dihydropyridin-3-yl)methyl)-1,2,3,4-tetrahydroisoquinolin-6-yl)pyridin-3-yl)acetic acid], for the setting “read-out: Activity”, the EC50 is 0.1 to 1 µM.

Turning to `Cc1n[nH]cc1CN1CCc2cc(-c3c(C)nc(C)c([C@H](OC(C)(C)C)C(=O)O)c3N3CCC(C)(C)CC3)ccc2C1` [Compound 53, (S)-2-(tert-butoxy)-2-(4-(4,4-dimethylpiperidin-1-yl)-2,6-dimethyl-5-(2-((3-methyl-1H-pyrazol-4-yl)methyl)-1,2,3,4-tetrahydroisoquinolin-6-yl)pyridin-3-yl)acetic acid], the EC50 was under 0.1 µM (read-out: Activity) and 0.061 µM (read-out: EC50 μM).

As for `Cc1nn(C)c(Cl)c1CN1CCc2cc(-c3c(C)nc(C)c([C@H](OC(C)(C)C)C(=O)O)c3N3CCC(C)(C)CC3)ccc2C1` [Compound 54, (S)-2-(tert-butoxy)-2-(5-(2-((5-chloro-1,3-dimethyl-1H-pyrazol-4-yl)methyl)-1,2,3,4-tetrahydroisoquinolin-6-yl)-4-(4,4-dimethylpiperidin-1-yl)-2,6-dimethylpyridin-3-yl)acetic acid], for the setting “read-out: Activity”, the EC50 is under 0.1 µM.

Consider `CCN1CCc2cc(-c3c(C)nc(C)c([C@H](OC(C)(C)C)C(=O)O)c3N3CCC(C)(C)CC3)ccc2C1` [Compound 55, (S)-2-(tert-butoxy)-2-(4-(4,4-dimethylpiperidin-1-yl)-5-(2-ethyl-1,2,3,4-tetrahydroisoquinolin-6-yl)-2,6-dimethylpyridin-3-yl)acetic acid], for which the EC50 (read-out: Activity) was in the range of 0.1 to 1 µM.
